Measured values from patent US20220401483A1, “COMBINATION OF A T CELL THERAPY AND (S)-3-[4-(4-MORPHOLIN-4-YLMETHYL-BENZYLOXY)-L-OXO-L,3-DIHYDRO-ISOINDOL-2-YL]-PIPERIDINE-2,6-DIONE” (Juno Therapeutics, Inc., priority 2019, published 2022).

Tests used:
Format in all cases: cell-based, human
[1] = tested on: RL CD19+ tumor cells; experiment: Acute cytolytic activity, anti-CD19 CAR T cells co-cultured with RL CD19+ tumor cells
Protocol: Anti-CD19 CAR T cells were co-cultured with RL CD19+ tumor cells at an effector to target (E:T) ratio of 1:1, in the presence of (S)-3-[4-(4-morpholin-4-ylmethyl-benzyloxy)-1-oxo-1,3-dihydro-isoindol-2-yl]-piperidine-2,6-dione (Compound A) (0.001 μM, 0.01 μM or 0.1 μM). Acute cytolytic activity was measured by tumor cell number over time. […] Co-culture of CAR T cells with RL resistant tumor cells in the presence of Compound A improved cytolytic CAR T cell function, […]

[2] = tested on: anti-CD19 CAR T cells; experiment: Intracellular cytokine staining of acutely stimulated anti-CD19 CAR T cells; conditions: 3 days, 30 μg/mL agonistic anti-CAR antibody
Protocol: Effector and proliferative activity of anti-CD19 CAR T cells were assessed following incubation in the presence of absence of Compound A. Anti-CD19 CAR+ T cell compositions were generated as described in Example 1.
The anti-CD19 CAR T cells were stimulated with agonistic antibody against the CAR (30 μg/mL; WO2018/023100) while being treated with vehicle control (ctrl) or Compound A. Intracellular cytokines were measured using intracellular cytokine staining (ICS) after 3 days of treatment. FIG. 7A show a heatmap of cytokine expression as depicted based on log 2-fold change in mean fluorescence intensity (MFI) of cytokines relative to vehicle control in culture.

[3] = tested on: A549.CD19 tumor spheroids; experiment: A549.CD19 tumor spheroid model, rescue treatment of chronically stimulated CAR T cells
Protocol: An A549.CD19 tumor spheroid model was further used to elucidate the T cell modulatory activity of the compounds. A549.CD19 tumor spheroid growth is insensitive to monotherapy treatment with the immunomodulatory compounds. CAR T cells that had been stimulated for 6 days with anti-ID were co-cultured by incubation with A549.CD19 tumor spheroids, in the presence of presence of Compound A (0.001 μM, 0.01 μM, or 0.1 μM). Averaged measurement of tumor spheroid size at Day 9 following co-culture with CAR-T cells was assessed. […] The number of CAR T cells in co-cultures with tumor spheroids, measured at day 5, were increased with treatment with Compound A (FIG. 5B).
Cytokines (IFNγ, IL-2 and TNFalpha) were measured from supernatant of the chronically stimulated CAR T cells above that had been co-cultured for 5 days with CD19 tumor spheroids. The log 2 fold change compared to control cells (chronically stimulated cells that had not been concurrently treated with immunomodulatory compound) is shown in FIG. 5E.

[4] = tested on: K562.CD19, Raji, Granta-519 cells; experiment: Cytolytic activity of CAR T cells after chronic stimulation with concurrent treatment, rechallenge with CD19+ tumor cells; conditions: 0.001 μM or 0.01 μM, E:T 1:1, vs control
Protocol: Anti-CD19 CAR-expressing T cells were produced substantially as described in Example 1. To subject cells to chronic stimulation conditions, the CAR+ T cells were stimulated with 30 μg/mL plate-bound anti-idiotypic (anti-ID) antibody (see e.g. WO2018/023100) for 6 days in the presence of (S)-3-[4-(4-morpholin-4-ylmethyl-benzyloxy)-1-oxo-1,3-dihydro-isoindol-2-yl]-piperidine-2,6-dione (Compound A) or a vehicle control, to induce chronic stimulation. After the 6-day culture period, the anti-CD19 CAR-expressing T cells were removed from culture and incubated with K562 cells transduced with CD19 (K562.CD19), Raji tumor cells, and Granta-519 tumor cells (to rechallenge the CAR-T cells) at an effector to target ratio of 2.5:1 unless otherwise indicated, in the presence of Compound A, at concentrations ranging from 0.001 μM to 10 μM, or vehicle control for up to 10 days. […] Cells were assessed at various times for cytolytic function, CAR T cell number and cytokine production.
CAR T cells that had been stimulated for 6 days with anti-ID concurrently in the presence of Compound A (0.001 μM or 0.01 μM) were washed free of compound and co-cultured with CD19+ tumor cells at an effector to target (E:T) ratio of 1:1 in the absence of Compound A. The assessed CD19+ tumor cells included K562 cells transduced with CD19 (K562.CD19), Raji cells, or Granta-519 cells.

[5] = tested on: Ikaros; experiment: Ikaros expression in chronically stimulated CAR T cells with concurrent treatment; conditions: 100 nM
Protocol: Anti-CD19 CAR-expressing T cells were produced substantially as described in Example 1. To subject cells to chronic stimulation conditions, the CAR+ T cells were stimulated with 30 μg/mL plate-bound anti-idiotypic (anti-ID) antibody (see e.g. WO2018/023100) for 6 days in the presence of (S)-3-[4-(4-morpholin-4-ylmethyl-benzyloxy)-1-oxo-1,3-dihydro-isoindol-2-yl]-piperidine-2,6-dione (Compound A) or a vehicle control, to induce chronic stimulation. […] Cells were assessed at various times for cytolytic function, CAR T cell number and cytokine production.
After the long-term, chronic stimulation with concurrent treatment with Compound A, CAR T cells were assessed for Ikaros expression or for CAR T function following rechallenge with CD19-expressing target cells.
Expression of Ikaros in CAR T cells that had been subjected to chronic stimulation in the presence of Compound A (1 nM, 10 nM or 100 nM) was measured by intracellular flow cytometry analysis using an antibody to Ikaros.

O=C1CC[C@H](N2Cc3c(OCc4ccc(CN5CCOCC5)cc4)cccc3C2=O)C(=O)N1 [Compound A, (S)-3-[4-(4-morpholin-4-ylmethyl-benzyloxy)-1-oxo-1,3-dihydro-isoindol-2-yl]-piperidine-2,6-dione]
sensitivity of RL tumor cell line to monotherapy ([1]; 0.01 μM or 0.1 μM): sensitive
cytolytic CAR T cell function against RL tumor cells ([1]; co-culture, E:T 1:1, 0.001, 0.01 or 0.1 μM): improved
effector cytokine production (ICS, MFI vs vehicle) [2]: potentiates
number of CAR T cells in co-cultures with tumor spheroids ([3]; day 5, 0.01 μM or 0.1 μM): increased
CAR T cell cytolytic function, A549.CD19 spheroid growth ([3]; rescue, 0.001, 0.01 or 0.1 μM, Day 9): improved
IFNγ in co-culture supernatant ([3]; rescue, 5 days co-culture with spheroids): statistically significant increase
cytolytic activity (tumor cell number over time) [4]: improved
Ikaros expression in chronically stimulated cells [5]: reduction of Ikaros expression was maintained
